Experimental data: publication PMC5522996, “Big conductance calcium‐activated potassium channel openers control spasticity without sedation” (British Journal of Pharmacology, 2017)

Key:
[1] = molecular target: CYP450 1A2 (Homo sapiens)
Description: IC50 Inhibition of substrate binding
Inhibition of binding of either 3-cyano-7-ethoxycoumarin, dibenzylfluorescein or 7-benzyoxy-4-
(trifluoromethyl) coumarin in human enzyme transfected BTI NN-5B1-4 cells or Sf9 insect cells or
inhibition of dextromethorphan substrate to CYP450 2D6 in liver microsomes.

mouse vas deferens = assay: Electrically‐evoked contraction of the mouse vas deferens; format: cell-based; conditions: Mus musculus, read-out: EC50, inhibition of electrically‐evoked contraction
Description: Vasa deferentia were obtained from outbred MF‐1 mice and mounted vertically in a 4 mL organ bath at an initial tension of 0.5 g. The baths contained Mg^2+‐free Krebs solution (NaCl 118.2 mM, KCl 4.75 mM, KH2PO4 1.19 mM, NaHCO3 25.0 mM, glucose 11.0 mM and CaCl2·6H2O 2.54 mM), which was kept at 35–36°C and bubbled with 95% O2 and 5% CO2. […] Contractions were monitored by a computer using a data recording and analysis system as described previously (Ross et al., 2001). After placement in an organ bath, each tissue was subjected to a stimulation‐free period of 10 min and then stimulated for 10 min. Tissues were then subjected to alternate periods of stimulation (5 min) and rest (10 min) until consistent twitch amplitudes were obtained. This equilibration procedure was followed by a stimulation‐free period of 25 min. Tissues were then stimulated for 5 min after which the first agonist addition was made and stimulation continued until the end of the experiment.

[2] = Plasma levels in toxicological studies, dogs; format: in vivo; conditions: both sexes, Beagle, dog, po, 30 min following 50 mg·kg^−1 p.o., read-out: VSN16R detected in plasma
Description: Twenty‐eight day toxicology in rats and dogs for Investigational New Drug filing was performed by Charles Rivers (UK). Reproductive toxicology in rabbits was performed by Charles Rivers (Canada). Pharmacokinetic and/or toxicological doses ranged from 5 to 1000 mg·kg^−1 p.o. in Sprague Dawley male and female rats (n = 6‐26 per group), 50–200 mg·kg^−1 p.o. in male and female Beagle dogs (n = 6 per group) and 100–750 mg·kg^−1 p.o. in female New Zealand white rabbits (n = 9 per group). Results are expressed as mean ± SD.
The stability of compounds when subjected to hepatic and plasma degradation was assessed in vitro by Inpharmatica, Cambridge, UK. […] Samples were centrifuged, and the resultant supernatant analysed for parent compound. The mass responses at baseline were taken as the 100% reference values against which the disappearance of the compound was measured. […] Half‐life values were calculated from the slope of these plots. Hepatocyte metabolism was assessed by Cyprotex, Macclesfield, and 10 μM VSN16R was incubated with primary mouse, rat, monkey (Macaque) and human hepatocytes for 1 h, and the presence of metabolites was assessed using liquid […] mass spectroscopy. The stability of VSN16R was assessed in vivo by Inpharmatica, Cyprotex and Charles Rivers, Cambridge. […] Data are expressed as mean ± SEM. […]

β1 = molecular target: T1, β1 (Homo sapiens, UniProt P08588); assay: Receptor binding profile of VSN16R; conditions: 10µM VSN16R
T1 construct: purchased Cerep; Chantest; DiscoveRx; Multispan; MDS Pharma Services
T1 sequence (P08588 whole entry): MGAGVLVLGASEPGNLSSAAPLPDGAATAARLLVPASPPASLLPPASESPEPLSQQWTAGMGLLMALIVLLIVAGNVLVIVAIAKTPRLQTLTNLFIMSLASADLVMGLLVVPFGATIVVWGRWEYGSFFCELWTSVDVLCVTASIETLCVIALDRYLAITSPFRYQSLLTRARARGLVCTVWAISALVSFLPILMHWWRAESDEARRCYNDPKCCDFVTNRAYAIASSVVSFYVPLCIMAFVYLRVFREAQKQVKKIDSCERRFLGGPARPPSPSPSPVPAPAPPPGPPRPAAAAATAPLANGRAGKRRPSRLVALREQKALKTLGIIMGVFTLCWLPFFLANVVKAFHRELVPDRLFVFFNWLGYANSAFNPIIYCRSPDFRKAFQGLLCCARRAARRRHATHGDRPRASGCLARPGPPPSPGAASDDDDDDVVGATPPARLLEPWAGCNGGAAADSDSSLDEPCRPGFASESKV

[3] = Phase I pharmacokinetics in healthy humans; format: in vivo, human
Description: The stability of compounds when subjected to hepatic and plasma degradation was assessed in vitro by Inpharmatica, Cambridge, UK. Compounds (1 μM) were incubated with either pooled mouse liver microsomes (0.1 mg protein mL^−1) or pooled mouse plasma at 37°C for 0, 5, 10, 20 and 40 min before termination with acetonitrile containing warfarin as an analytical internal standard. Samples were centrifuged, and the resultant supernatant analysed for parent compound. The mass responses at baseline were taken as the 100% reference values against which the disappearance of the compound was measured. The natural log of the % remaining values was used to generate linear plots of disappearance of the compounds. Half‐life values were calculated from the slope of these plots. Hepatocyte metabolism was assessed by Cyprotex, Macclesfield, and 10 μM VSN16R was incubated with primary mouse, rat, monkey (Macaque) and human hepatocytes for 1 h, and the presence of metabolites was assessed using liquid […] mass spectroscopy. The stability of VSN16R was assessed in vivo by Inpharmatica, Cyprotex and Charles Rivers, Cambridge. Blood (plasma) samples were obtained prior to and 5 min to 24 h after drug administration of 2–5 mg·kg^−1 i.v. or 5 mg·kg^−1 p.o. VSN16R into outbred mice and rats (n = 3 per time point). In addition, plasma, brain and spinal cord samples were obtained from ABH with spastic EAE. Immediately after blood collection, the brain and spinal cord were removed and then stored at −20°C prior to assay. Tissue samples were weighed, homogenized and centrifuged, and the lysates generated. Brain lysates and plasma were assayed by LC–MS methods by Inpharmatica/Charles Rivers, Cambridge, UK. This was also performed using a Waters Xevo TQ or API4000, AB Sciex mass spectrometer using spiked samples as standards. PK Solutions Software (Summit Research Services, Montrose, CO, USA), AB Sciex Analyst software combined with Thermo Fisher Scientific Watson LIMS processing and reporting software or WinNonLin pharmacokinetic or PK solutions 2.0 software (Summit Research Services, Montrose CO, USA) were used to produce PK parameters. Data are expressed as mean ± SEM. The detection limit of VSN16R was 2 ng·mL^−1 in plasma and brain and 14 ng·mL^−1 in spinal cords.

Sequence of CYP450 1A2 (Homo sapiens) (P11511 whole entry): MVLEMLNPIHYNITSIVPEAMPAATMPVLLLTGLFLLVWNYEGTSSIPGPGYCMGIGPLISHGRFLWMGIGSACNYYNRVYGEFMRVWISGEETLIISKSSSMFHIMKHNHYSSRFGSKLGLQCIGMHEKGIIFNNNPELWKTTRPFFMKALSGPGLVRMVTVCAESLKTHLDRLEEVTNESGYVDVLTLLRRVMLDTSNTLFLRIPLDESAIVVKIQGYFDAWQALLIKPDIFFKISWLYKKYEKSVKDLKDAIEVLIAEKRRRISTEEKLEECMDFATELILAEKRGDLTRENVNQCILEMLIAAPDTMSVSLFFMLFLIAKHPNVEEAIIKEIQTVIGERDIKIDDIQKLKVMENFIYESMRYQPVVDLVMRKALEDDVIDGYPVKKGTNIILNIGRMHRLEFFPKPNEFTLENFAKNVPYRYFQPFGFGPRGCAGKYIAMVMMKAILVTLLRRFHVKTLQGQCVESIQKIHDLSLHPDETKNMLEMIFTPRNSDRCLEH

C[C@H](CO)NC(=O)c1cccc(/C=C\CCCC(=O)N(C)C)c1 [VSN16R]
IC50 [1]: > 10000 nM | EC50 (mouse vas deferens): 10 nM | concentration at 30 min [2]: 82 µM | Activity (β1): Negligible Activity | Effect of feeding on pharmacokinetics ([3]; 200 mg p.o., fed within 0.5 h of dosing): delayed the time of the Cmax (Tmax) and reduced Cmax | concentration at 1 week ([3]; male, human, plasma, oral, twice daily dosing of VSN16R, read-out: Steady‐state plasma levels): > 0.1 µM | bioavailability ([3]; male, human, plasma, po, 25 mg p.o.): 100% | Terminal elimination ([3]; over the dose range studied, 25–800 mg): 3.4 to 4.9 h
